Measurements: patent publication US8912121B2, “Herbicidal compositions comprising 4-amino-3-chloro-5-fluoro-6-(4-chloro-2-fluoro-3-methoxyphenyl)pyridine-2-carboxylic acid or a derivative thereof and certain PS II inhibitors” (Dow Agrosciences LLC, priority 2012, dated 2014)

Tested on: SCPMA (Schoenoplectus maritimus, sea clubrush)
Assay: In-water applied mixtures, transplanted paddy rice, greenhouse
Assay type: in vivo, Schoenoplectus maritimus (L.) Lye
Method: Weed seeds or nutlets of the desired test plant species were planted in puddled soil (mud) prepared by mixing a shredded, non-sterilized mineral soil (50.5 percent silt, 25.5 percent clay, and 24 percent sand, with a pH of about 7.6 and an organic matter content of about 2.9 percent) and water at a 1:1 volumetric ratio. The prepared mud was dispensed in 365 mL aliquots into 16-ounce (oz.) non-perforated plastic pots with a surface area of 86.59 square centimeters (cm^2) leaving a headspace of 3 centimeters (cm) in each pot Mud was allowed to dry overnight prior to planting or transplanting. Rice seeds were planted in Sun Gro MetroMix® 306 planting mixture, which typically has a pH of 6.0 to 6.8 and an organic matter content of about 30 percent, in plastic plug trays. Seedlings at the second or third leaf stage of growth were transplanted into 840 mL of mud contained in 32-oz. non-perforated plastic pots with a surface area of 86.59 cm^2 4 days prior to herbicide application. The paddy was created by filling the headspace of the pots with 2.5 to 3 cm of water. When required to ensure good germination and healthy plants, a fungicide treatment and/or other chemical or physical treatment was applied. The plants were grown for 4-22 days in a greenhouse with an approximate 14 h photoperiod which was maintained at about 29° C during the day and 26° C. during the night. Nutrients were added as Osmocote® (19:6:12, N:P:K+ minor nutrients) at 2 g per 16-oz. pot and 4 g per 32-oz. pot. Water was added on a regular basis to maintain the paddy flood, and supplemental lighting was provided with overhead metal halide 1000-Watt lamps as necessary. The plants were employed for testing when they reached the first through fourth true leaf stage.
Treatments consisted of the acid or esters of 4-amino-3-chloro-5-fluoro-6-(4-chloro-2-fluoro-3-methoxy-phenyl)pyridine-2-carboxylic acid (compound A) each formulated as an SC (suspension concentrate) and various herbicidal components alone and in combination. Forms of compound A were applied on an acid equivalent basis.
Other herbicidal components were applied on an active ingredient basis and included photosystem II (PSII)-inhibits propanil formulated as […] bentazon-sodium formulated as Basagran®, and simetryne (technical grade material).
Treatment requirements for each compound or herbicidal component were calculated based upon the rates being tested, the concentration of active ingredient or acid equivalent in the formulation, an application volume of 2 mL per component per pot, and an application area of 86.59 cm^2 per pot.
For formulated compounds, a measured amount was placed in an individual 100 or 200 mL glass vial and was dissolved in a volume of 1.25% (v/v) Agri-Dex® crop oil concentrate to obtain application solutions.
For technical grade compounds, a weighed amount was placed in an individual 100 to 200 mL glass vial and was dissolved in a volume of acetone to obtain concentrated stock solutions. […] The concentrated stock solutions obtained were diluted with an equivalent volume of an aqueous mixture containing 2.5% (v/v) crop oil concentrate so that the final application solutions contained 1.25% (v/v) crop oil concentrate.
Applications were made by injecting with a pipetter appropriate amounts of the application solutions, individually and sequentially, into the aqueous layer of the paddy. Control plants were treated in the same manner with the solvent blank. Applications were made so that all treated plant material received the same concentrations of acetone and crop oil concentrate.
The treated plants and control plants were placed in a greenhouse as described above and water was added as needed to maintain a paddy flood. After approximately 3 weeks the condition of the test plants as compared with that of the untreated plants was determined visually and scored on a scale of 0 to 100 percent where 0 corresponds to no injury or growth inhibition and 100 corresponds to complete kill. […]

For `COc1c(Cl)ccc(-c2nc(C(=O)O)c(Cl)c(N)c2F)c1F` [Compound A Acid, 4-amino-3-chloro-6-(4-chloro-2-fluoro-3-methoxyphenyl)-5-fluoropyridine-2-carboxylic acid], the “Visual Weed Control (%) Obs” value (8.75 g ae/ha, 21 DAA) was 0%, the “Visual Weed Control (%) Obs” value (17.5 g ae/ha, 21 DAA) was 0% and the “Visual Weed Control (%) Obs” value (35 g ae/ha, 21 DAA) was 0%. The “Visual Weed Control (%) Obs” value (42.4 g ae/ha, 20 DAA) was 0% and the “Visual Weed Control (%) Obs” value (84.8 g ae/ha, 20 DAA) was 0%.

For `COc1c(Cl)ccc(-c2nc(C(=O)OCc3ccccc3)c(Cl)c(N)c2F)c1F` [Compound A Benzyl Ester, benzyl ester of 4-amino-3-chloro-5-fluoro-6-(4-chloro-2-fluoro-3-methoxy-phenyl)pyridine-2-carboxylic acid], the “Visual Weed Control (%) Obs” value (8.75 g ae/ha, 21 DAA) was 0%, the “Visual Weed Control (%) Obs” value (17.5 g ae/ha, 21 DAA) was 0% and the “Visual Weed Control (%) Obs” value (35 g ae/ha, 20 DAA) was 0%. The “Visual Weed Control (%) Obs” value (35 g ae/ha, 21 DAA) was 0% and the “Visual Weed Control (%) Obs” value (70 g ae/ha, 20 DAA) was 0%.

In the case of `CCC(=O)Nc1ccc(Cl)c(Cl)c1` [Propanil, N-(3,4-dichlorophenyl)propanamide, reference compound], the “Visual Weed Control (%) Obs” value (1680 g ai/ha, 21 DAA) is reported as 50% and the “Visual Weed Control (%) Obs” value (3360 g ai/ha, 21 DAA) is reported as 90%.
